US10195255B2, “GLP-1 derivatives and uses thereof” (Novo Nordisk A/S, priority 2013, dated 2019)
Where a SMILES comes first, the peptide text is derived from it. [ ]: non-standard residue; d: D form. The star is where a group is joined. X3 = O=C(O)CCCCCCCCCCCCCCCCCCC(=O)NCC1CCC(C(=O)N[C@@H](CCC(=O)NCCOCCOCC(=O)NCCOCCOCC(=O)NCCCC[C@H](NC(=O)COCCOCCNC(=O)COCCOCCNC(=O)CC[C@H](NC(=O)C2CCC(CNC(=O)CCCCCCCCCCCCCCCCCCC(=O)O)CC2)C(=O)O)C(=O)*)C(=O)O)CC1; X2 = O=C(O)CCCCCCCCCCCCCCCCCCC(=O)N1CCC(C(=O)N[C@@H](CCC(=O)NCCOCCOCC(=O)NCCOCCOCC(=O)NCCCC[C@H](NC(=O)COCCOCCNC(=O)COCCOCCNC(=O)CC[C@H](NC(=O)C2CCN(C(=O)CCCCCCCCCCCCCCCCCCC(=O)O)CC2)C(=O)O)C(=O)*)C(=O)O)CC1; X1 = O=C(O)CCCCCCCCCCCCCCCCCCC(=O)N[C@@H](CCC(=O)NCCOCCOCC(=O)NCCOCCOCC(=O)NCCCC[C@H](NC(=O)COCCOCCNC(=O)COCCOCCNC(=O)CC[C@H](NC(=O)CCCCCCCCCCCCCCCCCCC(=O)O)C(=O)O)C(=O)*)C(=O)O; Aib = CC(C)(N)C(=O)O

Legend:
[1] = Pharmacokinetic study in minipigs (i.v.)
Protocol: (§1) This is done in a pharmacokinetic (PK) study, where the terminal half-life of the derivative in question is determined. By terminal half-life is meant the time it takes to halve a certain plasma concentration in the terminal elimination phase.
(§2) Male Göttingen minipigs were obtained from Ellegaard Göttingen Minipigs (Dalmose, Denmark) approximately 7-14 months of age and weighing approximately 16-35 kg were used in the studies. The minipigs were housed either individually (pigs with permanent catheters) or in a group and fed restrictedly once or twice daily with SDS minipig diet (Special Diets Services, Essex, UK).
(§3) After at least 2 weeks of acclimatisation two permanent central venous catheters were implanted in vena cava caudalis or cranialis in each animal. The animals were allowed 1 week recovery after the surgery, and were then used for repeated pharmacokinetic studies with a suitable wash-out period between successive GLP-1 derivative dosings.
(§4) Blood samples (for example 0.8 ml) were collected in EDTA buffer (8 mM) and then centrifuged at 4° C. and 1942 G for 10 minutes.
(§5) Plasma was pipetted into Micronic tubes on dry ice, and kept at −20° C. until analysed for plasma concentration of the respective GLP-1 compound using LOCI. Individual plasma concentration-time profiles were analyzed by a non-compartmental pharmacokinetic method in Phoenix v. 6.2 (Pharsight Inc., Mountain View, Calif., USA), or other relevant software for PK analysis, and the resulting terminal half-lives (harmonic mean) determined.

in vivo = conditions: male, Göttingen, minipig, iv
Protocol: as §1, §2, §3, §4, §5

CC[C@H](C)[C@H](NC(=O)[C@H](Cc1ccccc1)NC(=O)[C@H](CCC(=O)O)NC(=O)[C@H](CCCNC(=N)N)NC(=O)[C@H](C)NC(=O)[C@H](C)NC(=O)[C@H](CCC(N)=O)NC(=O)[C@H](CCC(=O)O)NC(=O)[C@H](CCC(=O)O)NC(=O)[C@H](CC(C)C)NC(=O)[C@H](Cc1ccc(O)cc1)NC(=O)[C@H](CO)NC(=O)[C@H](CO)NC(=O)[C@@H](NC(=O)[C@H](CC(=O)O)NC(=O)[C@H](CO)NC(=O)[C@@H](NC(=O)[C@H](Cc1ccccc1)NC(=O)[C@@H](NC(=O)CNC(=O)[C@H](CCC(=O)O)NC(=O)C(C)(C)NC(=O)[C@@H](N)Cc1c[nH]cn1)[C@@H](C)O)[C@@H](C)O)C(C)C)C(=O)N[C@@H](C)C(=O)N[C@@H](Cc1c[nH]c2ccccc12)C(=O)N[C@@H](CC(C)C)C(=O)N[C@H](C(=O)N[C@@H](CCCNC(=N)N)C(=O)NCC(=O)N[C@@H](CCCNC(=N)N)C(=O)NCC(=O)N[C@@H](CCCCNC(=O)[C@H](CCCCNC(=O)COCCOCCNC(=O)COCCOCCNC(=O)CC[C@H](NC(=O)C1CCN(C(=O)CCCCCCCCCCCCCCCCCCC(=O)O)CC1)C(=O)O)NC(=O)COCCOCCNC(=O)COCCOCCNC(=O)CC[C@H](NC(=O)C1CCN(C(=O)CCCCCCCCCCCCCCCCCCC(=O)O)CC1)C(=O)O)C(=O)O)C(C)C [Example 18, N{Alpha}([Aib8,Glu22,Arg26,Arg34]-GLP-1-(7-37)-peptidyl)-N{Epsilon}[(2S)-2,6-bis[[2-[2-[2-[[2-[2-[2-[[(4S)-4-carboxy-4-[[1-(19-carboxynonadecanoyl)piperidine-4-carbonyl]amino]butanoyl]amino]ethoxy]ethoxy]acetyl]amino]ethoxy]ethoxy]acetyl]amino]hexanoyl]Lys] (H-H[Aib]EGTFTSDVSSYLEEQAAREFIAWLVRGRGK(X2)-OH)
half-life ([1]; male, Göttingen, minipig, plasma, iv, 15 nmol/kg): 140 h

CC[C@H](C)[C@H](NC(=O)[C@H](Cc1ccccc1)NC(=O)[C@H](CCC(=O)O)NC(=O)[C@H](CCCNC(=N)N)NC(=O)[C@H](C)NC(=O)[C@H](C)NC(=O)[C@H](CCC(N)=O)NC(=O)[C@H](CCC(=O)O)NC(=O)[C@H](CCC(=O)O)NC(=O)[C@H](CC(C)C)NC(=O)[C@H](Cc1ccc(O)cc1)NC(=O)[C@H](CO)NC(=O)[C@H](CO)NC(=O)[C@@H](NC(=O)[C@H](CC(=O)O)NC(=O)[C@H](CO)NC(=O)[C@@H](NC(=O)[C@H](Cc1ccccc1)NC(=O)[C@@H](NC(=O)CNC(=O)[C@H](CCC(=O)O)NC(=O)C(C)(C)NC(=O)[C@@H](N)Cc1c[nH]cn1)[C@@H](C)O)[C@@H](C)O)C(C)C)C(=O)N[C@@H](C)C(=O)N[C@@H](Cc1c[nH]c2ccccc12)C(=O)N[C@@H](CC(C)C)C(=O)N[C@H](C(=O)N[C@@H](CCCNC(=N)N)C(=O)NCC(=O)N[C@@H](CCCNC(=N)N)C(=O)NCC(=O)NCC(=O)N[C@@H](CO)C(=O)N[C@@H](CCCCNC(=O)[C@H](CCCCNC(=O)COCCOCCNC(=O)COCCOCCNC(=O)CC[C@H](NC(=O)C1CCC(CNC(=O)CCCCCCCCCCCCCCCCCCC(=O)O)CC1)C(=O)O)NC(=O)COCCOCCNC(=O)COCCOCCNC(=O)CC[C@H](NC(=O)C1CCC(CNC(=O)CCCCCCCCCCCCCCCCCCC(=O)O)CC1)C(=O)O)C(=O)O)C(C)C (stereo partly drawn) [Example 3, [Aib8,Glu22,Arg26,Arg34]-GLP-1-(7-37)-peptidyl-Gly-Ser-N{Epsilon}[(2S)-2,6-bis[[2-[2-[2-[[2-[2-[2-[[(4S)-4-carboxy-4-[[4-[(19-carboxynonadecanoylamino)methyl]cyclohexanecarbonyl]amino]butanoyl]amino]ethoxy]ethoxy]acetyl]amino]ethoxy]ethoxy]acetyl]amino]hexanoyl]Lys] (H-H[Aib]EGTFTSDVSSYLEEQAAREFIAWLVRGRGGSK(X3)-OH)
Terminal half-live ([1]; minipigs, i.v., 2 nmol/kg, harmonic mean): 122 h

CC[C@H](C)[C@H](NC(=O)[C@H](Cc1ccccc1)NC(=O)[C@H](CCC(=O)O)NC(=O)[C@H](CCCNC(=N)N)NC(=O)[C@H](C)NC(=O)[C@H](C)NC(=O)[C@H](CCC(N)=O)NC(=O)[C@H](CCC(=O)O)NC(=O)[C@H](CCC(=O)O)NC(=O)[C@H](CC(C)C)NC(=O)[C@H](Cc1ccc(O)cc1)NC(=O)[C@H](CO)NC(=O)[C@H](CO)NC(=O)[C@@H](NC(=O)[C@H](CC(=O)O)NC(=O)[C@H](CO)NC(=O)[C@@H](NC(=O)[C@H](Cc1ccccc1)NC(=O)[C@@H](NC(=O)CNC(=O)[C@H](CCC(=O)O)NC(=O)C(C)(C)NC(=O)[C@@H](N)Cc1c[nH]cn1)[C@@H](C)O)[C@@H](C)O)C(C)C)C(=O)N[C@@H](C)C(=O)N[C@@H](Cc1c[nH]c2ccccc12)C(=O)N[C@@H](CC(C)C)C(=O)N[C@H](C(=O)N[C@@H](CCCNC(=N)N)C(=O)NCC(=O)N[C@@H](CCCNC(=N)N)C(=O)NCC(=O)N[C@@H](CCCCNC(=O)[C@H](CCCCNC(=O)COCCOCCNC(=O)COCCOCCNC(=O)CC[C@H](NC(=O)CCCCCCCCCCCCCCCCCCC(=O)O)C(=O)O)NC(=O)COCCOCCNC(=O)COCCOCCNC(=O)CC[C@H](NC(=O)CCCCCCCCCCCCCCCCCCC(=O)O)C(=O)O)C(=O)O)C(C)C [Example 9, N{Alpha}([Aib8,Glu22,Arg26,Arg34]-GLP-1-(7-37)-peptidyl)-N{Epsilon}[(2S)-2,6-bis[[2-[2-[2-[[2-[2-[2-[[(4S)-4-carboxy-4-(19-carboxynonadecanoylamino)butanoyl]amino]ethoxy]ethoxy]acetyl]amino]ethoxy]ethoxy]acetyl]amino]hexanoyl]Lys] (H-H[Aib]EGTFTSDVSSYLEEQAAREFIAWLVRGRGK(X1)-OH; N-terminus and C-terminus assumed)
half-life (in vivo): 131 h

CC[C@H](C)[C@H](NC(=O)[C@H](Cc1ccccc1)NC(=O)[C@H](CCC(=O)O)NC(=O)[C@H](CCCNC(=N)N)NC(=O)[C@H](C)NC(=O)[C@H](C)NC(=O)[C@H](CCC(N)=O)NC(=O)[C@H](CCC(=O)O)NC(=O)[C@H](CCC(=O)O)NC(=O)[C@H](CC(C)C)NC(=O)[C@H](Cc1ccc(O)cc1)NC(=O)[C@H](CO)NC(=O)[C@H](CO)NC(=O)[C@@H](NC(=O)[C@H](CC(=O)O)NC(=O)[C@H](CO)NC(=O)[C@@H](NC(=O)[C@H](Cc1ccccc1)NC(=O)[C@@H](NC(=O)CNC(=O)[C@H](CCC(=O)O)NC(=O)C(C)(C)NC(=O)[C@@H](N)Cc1c[nH]cn1)[C@@H](C)O)[C@@H](C)O)C(C)C)C(=O)N[C@@H](C)C(=O)N[C@@H](Cc1c[nH]c2ccccc12)C(=O)N[C@@H](CC(C)C)C(=O)N[C@H](C(=O)N[C@@H](CCCNC(=N)N)C(=O)NCC(=O)N[C@@H](CCCNC(=N)N)C(=O)N[C@@H](CCCCNC(=O)[C@H](CCCCNC(=O)COCCOCCNC(=O)COCCOCCNC(=O)CC[C@H](NC(=O)CCCCCCCCCCCCCCCCCCC(=O)O)C(=O)O)NC(=O)COCCOCCNC(=O)COCCOCCNC(=O)CC[C@H](NC(=O)CCCCCCCCCCCCCCCCCCC(=O)O)C(=O)O)C(=O)O)C(C)C [Example 6, N{Epsilon-37}-[(2S)-2,6-bis[[2-[2-[2-[[2-[2-[2-[[(4S)-4-carboxy-4-(19-carboxynonadecanoylamino)butanoyl]amino]ethoxy]ethoxy]acetyl]amino]ethoxy]ethoxy]acetyl]amino]hexanoyl]-[Aib8,Glu22,Arg26,Arg34,Lys37]-GLP-1-(7-37)-peptide]
half-life (in vivo): 128 h
